According to US11110195B2, “Esculentin 1a derivatives and uses thereof” (University of Houston System, priority 2013, dated 2021):
Residues, ends and D or L forms follow the SMILES beside them.

Experiments:
[1] = tested on: Pseudomonas aeruginosa ATCC 19660 induced keratitis; assay: Neutrophil infiltration into cornea by myeloperoxidase (MPO) assay; assay type: in vivo, C57BL/6 mice
Text: Corneas were harvested 1,3 and 5 days after infection and neutrophil infiltration determined by MPO assay. […] PI=post infection, Pre-trt=pretreatment with Esc-1a(1-21)NH2. *Indicates significant difference, p<0.05, among PBS control and peptide treated groups.
(§1) To determine a clinical score, neutrophil infiltration by myeloperoxidase assay (MPO assay) and viable bacterial cell counts in infected and control corneas of C57BL/6 mice with Pseudomonas aeruginosa ATCC 19660 keratitis following pre-treatment and post-infection treatment with Esc-1a(1-21)NH2 up to 5 days post-infection (PI) the following experiment was performed. In these experiments pre-treatment refers to a group of animals where treatment was initiated 24 hrs before infection then continued after infection.
An MPO assay was used to quantitate polymorphonuclear cell numbers in the cornea from both infected corneas (n=2/group/time point) of Esc-1a(1-21)NH2 treated and control (PBS) treated animals. Briefly, corneas were harvested at days 1, 3 and 5 PI. The change in absorbance at 450 nm was monitored for one hour at 15-30 minute intervals. The results were expressed as units of MPO per cornea. One unit of MPO activity is equivalent to 2*10^5 polymorphonuclear cells.
Harvested and pooled corneas (2 mice/group) in 200 μl of sterile PBS/cornea. Placed the harvested corneas on ice until further processing. Homogenized the corneas for 30-45 seconds and briefly sonicated them for 10-20 seconds.
C. Added 10 μl of 0.5% HTAB (hexadecyltrimethylammonium bromide in potassium phosphate buffer 50 mM pH 6) to 90 μl homogenate (*stored the remaining homogenate on ice to obtain recoverable P. aeruginosa counts for viability assay).
D. Sonicated samples 2×5 seconds then freeze thawed three times on liquid nitrogen.
E. Centrifuged at 14000*g at 4° C. for 20 minutes.
F. To 10 ml of phosphate buffer added 0.00167 g 0-dianisidine dihydrochloride and 1.67 μl (0.05%) H2O2. 90 μl of this was added to each well to produce the color reaction (protected the solution from light).
G. Made up standards for MPO using phosphate buffer based on the initial concentration of the MPO. Double diluted 25 μl MPO standard & carry 25 μl over since 10 μl was needed per well (run in duplicate).
H. Added 10 μl of each standard to 96 well plate and 10 μl sample supernatant (in triplicate).
I. Added 90 μl phosphate buffer containing O-d-d and H2O2 to the plate. Popped bubbles and read on spectrophotometer at 450 nm at 3 minutes, 5 minutes, 10 minutes, 15 minutes, 30 minutes, 45 minutes and 60 minutes.
The MPO units per cornea were determined and the mean from 3 independent experiments was plotted (FIG. 6).

[2] = tested on: Pseudomonas aeruginosa ATCC 19660; assay: Viable bacterial count in infected corneas; assay type: in vivo, C57BL/6 mice; details: for difference in viable bacterial counts vs PBS control: pre-treated or treated groups; for viable bacterial count in cornea: pre-treated
Text: Corneas were harvested 1, 3 and 5 days after infection and the number of surviving bacteria determined. […] P1=post infection; Pre-trt=pretreatment with Esc-1a(1-21)NH2. *Indicates significant difference, p<0.05, among PBS control and peptide treated groups.
as §1
To quantitate viable bacteria, a 100 μl aliquot from the corneal homogenates was serially diluted 1:10 in sterile PBS. Duplicate aliquots (20 μl) of each dilution, including the original homogenate, were plated onto nutrient agar. Plates were incubated for 14-16 h at 37° C.
The harvested corneas were homogenized, plated on growth media and the bacterial colonies recovered counted 14-18 hours post plating. Data plotted (FIG. 7) show the viable bacterial counts obtained from an average of 3 independent experiments.

[3] = tested on: A. castellani (ATCC 50370) trophozoites; assay: Acanthamoeba viability, ethidium homodimer-1 time lapse microscopy; assay type: cell-based, Acanthamoeba castellani
Method: FIGS. 8A-8D show the effect of Esc-1a(1-21)NH2 on the viability of Acanthamoeba castellani. The amoeba were seeded in to chamber slides, then a fluorescent viability dye (ethidium homodimer-1) and 500 μg/ml Esc-1a(1-21)NH2 added. The amoebas were viewed by time lapse microscopy in an environmental chamber for 6 hours. Images are from before peptide addition at time zero in healthy trophozoites (FIG. 8A), then 10 minutes (FIG. 8B), 2 hours (FIG. 8C) and 6 hours (FIG. 8D) post addition of peptide Esc-1a(1-21)NH2. […] Significant amounts of debris accumulated over time indicating rupture of the cells.
1×10^4 A. castellani (ATCC 50370) trophozoites in PYG 712 growth medium were transferred to coverglass chamber slides and allowed to attach overnight. The cells were then incubated with PYG 712 medium containing a 1:100 dilution of ethidium homodimer-1 (EthD-1) for 15 minutes at room temperature. EthD-1 is a cell-impermeant viability indicator dye that is taken up by cells with a compromised plasma membrane and fluoresces red/orange when bound to DNA. Serial brightfield and fluorescence images were taken using a DeltaVision Spectris Core fluorescence microscope every 3 minutes for 30 minutes to visualize cellular health prior to addition of Esc-1a(1-21)NH2. The medium was then replaced with 200 μl growth media containing 125, 250 or 500 μg/ml Esc-1a(1-21)NH2 and 1:100 diluted ethidium homodimer-1. Brightfield and fluorescence images were taken every 3 minutes for another 6 hours. Serial images were compiled together using Softworx software (Applied Precision) to generate time-lapse videos.

CC[C@H](C)[C@H](NC(=O)CN)C(=O)N[C@@H](Cc1ccccc1)C(=O)N[C@@H](CO)C(=O)N[C@@H](CCCCN)C(=O)N[C@@H](CC(C)C)C(=O)N[C@@H](C)C(=O)NCC(=O)N[C@@H](CCCCN)C(=O)N[C@@H](CCCCN)C(=O)N[C@H](C(=O)N[C@@H](CCCCN)C(=O)N[C@@H](CC(N)=O)C(=O)N[C@@H](CC(C)C)C(=O)N[C@@H](CC(C)C)C(=O)N[C@H](C(=O)N[C@@H](CO)C(=O)NCC(=O)N[C@@H](CC(C)C)C(=O)N[C@@H](CCCCN)C(=O)NCC(N)=O)[C@@H](C)CC)[C@@H](C)CC [Esc-1a(1-21)NH2] (H-GIFSKLAGKKIKNLLISGLKG-NH2; N-terminus assumed)
normalized MPO activity per cornea ([1]; pre-treated, day 1 PI): 1.55±0.4 MPO units | normalized MPO activity per cornea ([1]; pre-treated, day 3 PI): 1.66±0.13 MPO units | normalized MPO activity per cornea ([1]; pre-treated, day 5 PI): 1.55±0.28 MPO units | normalized MPO activity per cornea ([1]; treated after infection, day 1 PI): 1.69±0.40 MPO units | normalized MPO activity per cornea ([1]; treated after infection, day 3 PI): 1.84±0.16 MPO units | normalized MPO activity per cornea ([1]; treated after infection, day 5 PI): 1.82±0.42 MPO units | difference in viable bacterial counts vs PBS control ([2]; day 5 PI): 4 log10 | difference in viable bacterial counts vs PBS control ([2]; days 1 and 3 PI): 2-3 log10 CFU | viable bacterial count in cornea ([2]; day 1 PI): 3.35 log10 CFU | viable bacterial count in cornea ([2]; day 3 PI): 3.7 log10 CFU | viable bacterial count in cornea ([2]; day 5 PI): 3.47 log10 CFU | trophozoites stained positively with EthD-1 ([3]; 125 μg/ml, 6 hours): approximately 67% | trophozoites stained positively with EthD-1 ([3]; 250 μg/ml, 10 minutes): approximately 82% | trophozoites stained positively with EthD-1 ([3]; 250 μg/ml, 6 hours): ~100% | time until orange/red fluorescence (dead/dying cells) detected ([3]; 500 μg/ml): ≤ 10 min
